Key:
[1] = test system: HCV replicon in Huh7 cells; assay: HCV replicon cell-based assay; set-up: species or system HCV strain 1B; details: Hepatitis C virus, Huh-7, 96 h, HCV replicon, 4 days, read-out: EC50 range
Procedure, shortened: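 Huh7 cells carrying a genotype 1b subgenomic replicon (NS3-NS5B, neo) treated 4 days at 37° C with compound (0.5% DMSO final). NS3 protease activity read in lysates with 10 μM FRET peptide (340/490 nm, kinetic), giving EC50. Confirmed by Taqman qRT-PCR of HCV RNA and a Renilla luciferase replicon.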

[2] = molecular target: T1, HCV NS3/4A protease complex (UniProt P27958, C1454S/C1711G, species not given); assay: Recombinant HCV NS3/4A protease complex FRET peptide assay (strain not stated); format: biochemical; details: HCV NS3/4A protease enzyme assay, read-out: IC50 range
T1 construct: fused on or other part: Three-lysine solubilising tail at the C-terminus of NS4A

Compound | EC50 [1] [µM] | IC50 [2] [µM]
C=CC1C[C@]1(NC(=O)[C@@H]1C[C@@H](OC(=O)Nc2ccccc2C(=O)O)CN1C(=O)[C@@H](NC(=O)OC(C)(C)C)C(C)(C)C)C(=O)NS(=O)(=O)C1CC1 (stereo partly drawn) [Compound 69, BocNH-P3(t-BuGly)-P2(Hyp(O—CO(NH—(2-benzoic acid))))-P1(1R,2S VinylAcca)—CONHSO2Cyclopropane] | > 10 | 0.1 to 1
C=CC1C[C@]1(NC(=O)[C@@H]1C[C@@H](OC(=O)Nc2onc(C)c2C)CN1C(=O)[C@@H](NC(=O)OC(C)(C)C)C(C)(C)C)C(=O)NS(=O)(=O)C1CC1 (stereo partly drawn) [Compound 70, BocNH-P3(t-BuGly)-P2(Hyp(O—CO(NH—(3,4-Dimethyl-isoxazol-5-yl))))-P1(1R,2S VinylAcca)—CONHSO2Cyclopropane] | > 10 | 0.1 to 1
C=CC1C[C@]1(NC(=O)[C@@H]1C[C@@H](OC(=O)Nc2cscc2C(=O)OC)CN1C(=O)[C@@H](NC(=O)OC(C)(C)C)C(C)(C)C)C(=O)NS(=O)(=O)C1CC1 (stereo partly drawn) [Compound 71, BocNH-P3(t-BuGly)-P2(Hyp(O—CO(NH-4-(thiophene-3-carboxylic acid methyl ester))))-P1(1R,2S VinylAcca)—CONHSO2Cyclopropane] | 0.1 to 1 | < 0.1
C=CC1C[C@]1(NC(=O)[C@@H]1C[C@@H](OC(=O)Nc2ncccc2C(=O)OCC)CN1C(=O)[C@@H](NC(=O)OC(C)(C)C)C(C)(C)C)C(=O)NS(=O)(=O)C1CC1 (stereo partly drawn) [Compound 72, BocNH-P3(t-BuGly)-P2(Hyp(O—CO(NH-2-(nicotinic acid ethyl ester))))-P1(1R,2S VinylAcca)—CONHSO2Cyclopropane] | 1 to 10 | < 0.1
C=CC1C[C@]1(NC(=O)[C@@H]1C[C@@H](OC(=O)Nc2cc(C)nn2-c2ccccc2)CN1C(=O)[C@@H](NC(=O)OC(C)(C)C)C(C)(C)C)C(=O)NS(=O)(=O)C1CC1 (stereo partly drawn) [Compound 73, BocNH-P3(t-BuGly)-P2(Hyp(O—CO(NH—(5-Methyl-2-phenyl-4H-pyrazol-3-yl))))-P1(1R,2S VinylAcca)—CONHSO2 Cyclopropane] | > 10 | < 0.1
C=CC1C[C@]1(NC(=O)[C@@H]1C[C@@H](OC(=O)Nc2ccccc2C(=O)c2ccccc2)CN1C(=O)[C@@H](NC(=O)OC(C)(C)C)C(C)(C)C)C(=O)NS(=O)(=O)C1CC1 (stereo partly drawn) [Compound 74, BocNH-P3(t-BuGly)-P2(Hyp(O—CO(NH—(2-benzophenone))))-P1(1R,2S VinylAcca)—CONHSO2Cyclopropane] | 0.1 to 1 | < 0.1
C=CC1C[C@]1(NC(=O)[C@@H]1C[C@@H](OC(=O)Nc2ccccn2)CN1C(=O)[C@@H](NC(=O)OC(C)(C)C)C(C)(C)C)C(=O)NS(=O)(=O)C1CC1 (stereo partly drawn) [Compound 75, BocNH-P3(t-BuGly)-P2(Hyp(O—CO(NH—(pyridin-2-yl))))-P1(1R,2S VinylAcca)—CONHSO2Cyclopropane] | > 10 | 0.1 to 1
C=CC1C[C@]1(NC(=O)[C@@H]1C[C@@H](OC(=O)Nc2cc(C(C)=O)ccc2N2CCC(C(=O)OCC)CC2)CN1C(=O)[C@@H](NC(=O)OC(C)(C)C)C(C)(C)C)C(=O)NS(=O)(=O)C1CC1 (stereo partly drawn) [Compound 76, BocNH-P3(t-BuGly)-P2(Hyp(O—CO(NH-2-(1-(4-acetyl-phenyl))-piperidine-4-carboxylic acid ethyl ester)))-P1(1R,2S VinylAcca)—CONHSO2Cyclopropane] | 0.1 to 1 | < 0.1
C=CC1C[C@]1(NC(=O)[C@@H]1C[C@@H](OC(=O)Nc2ccc(Cl)cc2-c2cc(C)n[nH]2)CN1C(=O)[C@@H](NC(=O)OC(C)(C)C)C(C)(C)C)C(=O)NS(=O)(=O)C1CC1 (stereo partly drawn) [Compound 78, BocNH-P3(t-BuGly)-P2(Hyp(O—CO(NH-1-(4-Chloro-2-(5-methyl-2H-pyrazol-3-yl)phenyl))))-P1(1R,2S VinylAcca)—CONHSO2Cyclopropane] | > 10 | 0.1 to 1
C=CC1C[C@]1(NC(=O)[C@@H]1C[C@@H](OC(=O)Nc2ccccc2C(C)=O)CN1C(=O)[C@@H](NC(=O)OC(C)(C)C)C(C)(C)C)C(=O)NS(=O)(=O)C1CC1 (stereo partly drawn) [Compound 79, BocNH-P3(t-BuGly)-P2(Hyp(O—CO(NH—(2-acetophenone))))-P1(1R,2S VinylAcca)—CONHSO2Cyclopropane] | 0.1 to 1 | < 0.1
C=CC1C[C@]1(NC(=O)[C@@H]1C[C@@H](OC(=O)Nc2cc(C(C)=O)ccc2N2CCCCC2)CN1C(=O)[C@@H](NC(=O)OC(C)(C)C)C(C)(C)C)C(=O)NS(=O)(=O)C1CC1 (stereo partly drawn) [Compound 80, BocNH-P3(t-BuGly)-P2(Hyp(O—CO(NH-1-(2-piperidino-5-acetylphenyl))))-P1(1R,2S VinylAcca)—CONHSO2Cyclopropane] | < 0.1 | < 0.1
C=CC1C[C@]1(NC(=O)[C@@H]1C[C@@H](OC(=O)Nc2ccccc2-c2ccc(C)o2)CN1C(=O)[C@@H](NC(=O)OC(C)(C)C)C(C)(C)C)C(=O)NS(=O)(=O)C1CC1 (stereo partly drawn) [Compound 81] | < 0.1 | < 0.1
C=CC1C[C@]1(NC(=O)[C@@H]1C[C@@H](OC(=O)Nc2ccccc2N2CCOCC2)CN1C(=O)[C@@H](NC(=O)OC(C)(C)C)C(C)(C)C)C(=O)NS(=O)(=O)C1CC1 (stereo partly drawn) [Compound 82, BocNH-P3(t-BuGly)-P2(Hyp(O—CO(NH-2-(morpholin-4-yl-phenyl))))-P1(1R,2S VinylAcca)—CONHSO2Cyclopropane] | 0.1 to 1 | < 0.1
C=CC1C[C@]1(NC(=O)[C@@H]1C[C@@H](OC(=O)Nc2cc(C)ccc2-n2cccc2)CN1C(=O)[C@@H](NC(=O)OC(C)(C)C)C(C)(C)C)C(=O)NS(=O)(=O)C1CC1 (stereo partly drawn) [Compound 83, BocNH-P3(t-BuGly)-P2(Hyp(O—CO(NH—(5-Methyl-2-pyrrol-1-yl-phenyl))))-P1(1R,2S VinylAcca)—CONHSO2Cyclopropane] | < 0.1 | < 0.1
C=CC1C[C@]1(NC(=O)[C@@H]1C[C@@H](OC(=O)Nc2cc(C(F)(F)F)ccc2N2CCCC2)CN1C(=O)[C@@H](NC(=O)OC(C)(C)C)C(C)(C)C)C(=O)NS(=O)(=O)C1CC1 (stereo partly drawn) [Compound 84, BocNH-P3(t-BuGly)-P2(Hyp(O—CO(NH—(2-Pyrrolidin-1-yl-5-trifluoromethyl-phenyl))))-P1(1R,2S VinylAcca)—CONHSO2Cyclopropane] | 0.1 to 1 | < 0.1
C=CC1C[C@]1(NC(=O)[C@@H]1C[C@@H](OC(=O)Nc2cc(C(F)(F)F)ccc2-n2cccc2)CN1C(=O)[C@@H](NC(=O)OC(C)(C)C)C(C)(C)C)C(=O)NS(=O)(=O)C1CC1 (stereo partly drawn) [Compound 85] | 0.1 to 1 | < 0.1
C=CC1C[C@]1(NC(=O)[C@@H]1C[C@@H](OC(=O)Nc2ccccc2-n2cccc2)CN1C(=O)[C@@H](NC(=O)OC(C)(C)C)C(C)(C)C)C(=O)NS(=O)(=O)C1CC1 (stereo partly drawn) [Compound 86, BocNH-P3(t-BuGly)-P2(Hyp(O—CO(NH—(2-pyrrol-1-yl-phenyl))))-P1(1R,2S VinylAcca)—CONHSO2Cyclopropane] | 0.1 to 1 | < 0.1
C=CC1C[C@]1(NC(=O)[C@@H]1C[C@@H](OC(=O)Nc2ccccc2-n2nc3cc(OC)c(OC)cc3n2)CN1C(=O)[C@@H](NC(=O)OC(C)(C)C)C(C)(C)C)C(=O)NS(=O)(=O)C1CC1 (stereo partly drawn) [Compound 87, BocNH-P3(t-BuGly)-P2(Hyp(O—CO(NH—(2-(5,6-Dimethoxy-benzotriazol-2-yl)-phenyl))))-P1(1R,2S VinylAcca)—CONHSO2Cyclopropane] | < 0.1 | < 0.1
C=CC1C[C@]1(NC(=O)[C@@H]1C[C@@H](OC(=O)Nc2ccccc2-c2nnc[nH]2)CN1C(=O)[C@@H](NC(=O)OC(C)(C)C)C(C)(C)C)C(=O)NS(=O)(=O)C1CC1 (stereo partly drawn) [Compound 88, BocNH-P3(t-BuGly)-P2(Hyp(O—CO(NH—(2-(4H-[1,2,4]Triazol-3-yl)-phenyl))))-P1(1R,2S VinylAcca)—CONHSO2Cyclopropane] | > 10 | < 0.1
C=CC1C[C@]1(NC(=O)[C@@H]1C[C@@H](OC(=O)Nc2ccccc2-n2cccn2)CN1C(=O)[C@@H](NC(=O)OC(C)(C)C)C(C)(C)C)C(=O)NS(=O)(=O)C1CC1 (stereo partly drawn) [Compound 89, BocNH-P3(t-BuGly)-P2(Hyp(O—CO(NH—(2-Pyrazol-1-yl-phenyl))))-P1(1R,2S VinylAcca)—CONHSO2Cyclopropane] | 0.1 to 1 | < 0.1
C=CC1C[C@]1(NC(=O)[C@@H]1C[C@@H](OC(=O)Nc2ccccc2N2CCCCC2)CN1C(=O)[C@@H](NC(=O)OC(C)(C)C)C(C)(C)C)C(=O)NS(=O)(=O)C1CC1 (stereo partly drawn) [Compound 90, BocNH-P3(t-BuGly)-P2(Hyp(O—CO(NH—(2-Piperidin-1-yl-phenyl))))-P1(1R,2S VinylAcca)—CONHSO2Cyclopropane] | < 0.1 | < 0.1
C=CC1C[C@]1(NC(=O)[C@@H]1C[C@@H](OC(=O)Nc2cc(C(=O)OCC)ccc2N2CCCCC2)CN1C(=O)[C@@H](NC(=O)OC(C)(C)C)C(C)(C)C)C(=O)NS(=O)(=O)C1CC1 (stereo partly drawn) [Compound 91, BocNH-P3(t-BuGly)-P2(Hyp(O—CO(NH—(5-carboxyethyl-2-piperidin-1-ylphenyl))))-P1(1R,2S VinylAcca)—CONHSO2Cyclopropane] | 0.1 to 1 | < 0.1
C=CC1C[C@]1(NC(=O)[C@@H]1C[C@@H](OC(=O)Nc2cc(C(F)(F)F)ccc2N2CCC(C(F)(F)F)CC2)CN1C(=O)[C@@H](NC(=O)OC(C)(C)C)C(C)(C)C)C(=O)NS(=O)(=O)C1CC1 (stereo partly drawn) [Compound 92, BocNH-P3(t-BuGly)-P2(Hyp(O—CO(NH—(5-Trifluoromethyl-2-(4-trifluoromethyl-piperidin-1-yl)-phenyl))))-P1(1R,2S VinylAcca)—CONHSO2Cyclopropane] | < 0.1 | < 0.1
C=CC1C[C@]1(NC(=O)[C@@H]1C[C@@H](OC(=O)Nc2ccccc2-n2nccn2)CN1C(=O)[C@@H](NC(=O)OC(C)(C)C)C(C)(C)C)C(=O)NS(=O)(=O)C1CC1 (stereo partly drawn) [Compound 93, BocNH-P3(t-BuGly)-P2(Hyp(O—CO(NH—(2-[1,2,3]Triazol-2-yl-phenyl))))-P1(1R,2S VinylAcca)—CONHSO2Cyclopropane] | 0.1 to 1 | < 0.1

From patent publication US7041698B2, “Hepatitis C virus inhibitors” (Bristol-Myers Squibb Company, priority 2002, dated 2006)
